# Measured values taken from US20220017512A1 (SHANGHAI ENNOVABIO PHARMACEUTICALS CO., LTD., priority 2018, published 2022).
# Legend:
# Recombinant human TRKA = biological target: T1, Recombinant human TRKA (Homo sapiens, UniProt P04629); test: In vitro activity test on TRKA kinase (HTRF KinEASE TK); assay type: biochemical; conditions: 14.68 μM ATP, 40 min
# T1 construct: purchased Carna Biosciences
# Method in brief: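 Reaction: 0.2 ng/μL TRKA, 1 μM biotinylated TK substrate, 14.68 μM ATP, 5 mM MgCl2, 1 mM DTT, 1% DMSO, 40 min at room temperature. Compounds tested at 1 μM to 0.05 nM (10-point, 3-fold, duplicate). HTRF 665/620 ratio converted to % inhibition versus no-compound control; IC50 by 4-parameter fit.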
# [1] = biological target: T2, recombinant human TRKA (G667C) (Homo sapiens, UniProt P04629, G667C); test: In vitro activity test on mutant TRKA (G667C) (HTRF KinEASE TK); assay type: biochemical; conditions: 5.5 μM ATP, 30 min
# T2 construct: purchased SignalChem
# Method in brief: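 HTRF KinEASE TK format with recombinant human TRKA G667C (0.026 ng/μL), 1 μM biotinylated TK substrate, 5.5 […] ATP, 5 mM MgCl2, 1 mM DTT, 1% DMSO; 30 min at room temperature. Detection overnight; 665/620 ratio gives % inhibition, IC50 from 4-parameter fit over 10 doses (1 μM–0.004 nM).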
# ΔTRKA(G595R) = biological target: T3, ΔTRKA(G595R) (Homo sapiens, UniProt P04629, G595R, form not given); test: Detection of TRK kinase activity on cellular level by ELISA, ΔTRKA(G595R)/NIH-3T3 cells; assay type: cell-based; conditions: NIH-3T3 cells stably expressing ΔTRKA(G595R), 2 hours treatment
# T3 construct: NIH-3T3 cell line stably expressing ΔTRKA or ΔTRKA(G595R) was constructed by plasmid transfection
# Description: Biological Test Example 4: Detection of TRK Kinase Activity on Cellular Level by ELISA
# NIH-3T3 cell line stably expressing ΔTRKA or ΔTRKA(G595R) was constructed by plasmid transfection.
# On the first day, cells were seeded into a 96-well cell culture plate, 10000 cells/well in the medium (DMEM+10% FBS). On the second day, different concentrations of test compounds were added to treat cells for 2 hours, then the cell culture plate was placed on ice; and the supernatant was removed and washed with pre-cooled PBS once. The cells were lysed with NP40 lysis buffer containing protease and phosphatase inhibitor, transferred to an antibody pre-coated plate, and sealed to incubate overnight at 4° C. The remaining steps were proceeded according to the method provided in the ELISA kit (eg, as described in R&D DYC2578-2), results were shown in Table 2.
# KM12-LUC cells = test: KM12-LUC cell proliferation experiment (CellTiter-Glo, 72 hours); assay type: cell-based; conditions: Homo sapiens; KM12-LUC cells expressing TPM3-NTRK1 fusion gene
# Description: Biological Test Example 3: KM12-LUC Cell Proliferation Experiment
# Human colon cancer cell line KM12-LUC (LUC, stably expressing Luciferase) expressing TPM3-NTRK1 fusion gene was used to evaluate cellular activity of the compounds cellular level. The TRK fusion gene in KM12-LUC cells makes it independent on the stimulation of extracellular growth factor, sustainably self-activate and activate the downstream signal pathway associated with cell proliferation such as MAPK-ERK, PI3K-AKT, or the like. […] The method was as follows: On the first day, the cells were seeded into 384-well plates at 2,000 cells/well; on the second day, different concentrations of test compounds were added; and on the 5th day, CellTiter-Glo (Promega) was added to detect cellular potency, and 72 hours cell proliferation inhibition rate was calculated. Statistical analysis was carried out by Prism5 and the inhibition rate of the test compound were calculated, as shown in FIG. 1.
# Recombinant human TRKC = biological target: T4, Recombinant human TRKC (Homo sapiens, UniProt Q16288); test: In vitro activity test on TRKC kinase (HTRF KinEASE TK); assay type: biochemical; conditions: 25.64 μM ATP, 40 min
# T4 construct: purchased Carna Biosciences
# Method in brief: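 Recombinant human TRKC (0.037 ng/μL) with 1 μM biotinylated TK substrate, 25.64 μM ATP, 5 mM MgCl2, 1 mM DTT, 40 min at room temperature; compound 1 μM to 0.05 nM, 1% DMSO. HTRF 665/620 ratio after overnight detection; IC50 from 4-parameter fit.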
# Recombinant human TRKB = biological target: T5, Recombinant human TRKB (Homo sapiens, UniProt Q16620); test: In vitro activity test on TRKB kinase (HTRF KinEASE TK); assay type: biochemical; conditions: 4.77 μM ATP, 50 min
# T5 construct: purchased Carna Biosciences
# Method in brief: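 Recombinant human TRKB (0.037 ng/μL) phosphorylated 1 μM biotinylated TK substrate at 4.77 μM ATP, 5 mM MgCl2, 1% DMSO, 50 min at room temperature; compounds 1 μM–0.05 nM. HTRF KinEASE detection overnight; 665/620 ratio converted to inhibition and IC50 from 4-parameter fit.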
# [2] = biological target: T6, recombinant human TRKA (G595R) (Homo sapiens, UniProt P04629, G595R); test: In vitro activity test on mutant TRKA (G595R) (HTRF KinEASE TK); assay type: biochemical; conditions: 4.5 μM ATP, 30 min
# T6 construct: purchased SignalChem
# Method in brief: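 HTRF KinEASE TK format: 0.12 ng/μL recombinant TRKA (G595R), 1 μM biotinylated TK substrate, 4.5 μM ATP, 5 mM MgCl2, 1 mM DTT, 1% DMSO, 30 min at room temperature; detection overnight. IC50 from 10-point 4-fold series (1 μM to 0.004 nM, duplicates), 665/620 ratio, 4-parameter fit.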
# T2 sequence (P04629 33-796 G667C): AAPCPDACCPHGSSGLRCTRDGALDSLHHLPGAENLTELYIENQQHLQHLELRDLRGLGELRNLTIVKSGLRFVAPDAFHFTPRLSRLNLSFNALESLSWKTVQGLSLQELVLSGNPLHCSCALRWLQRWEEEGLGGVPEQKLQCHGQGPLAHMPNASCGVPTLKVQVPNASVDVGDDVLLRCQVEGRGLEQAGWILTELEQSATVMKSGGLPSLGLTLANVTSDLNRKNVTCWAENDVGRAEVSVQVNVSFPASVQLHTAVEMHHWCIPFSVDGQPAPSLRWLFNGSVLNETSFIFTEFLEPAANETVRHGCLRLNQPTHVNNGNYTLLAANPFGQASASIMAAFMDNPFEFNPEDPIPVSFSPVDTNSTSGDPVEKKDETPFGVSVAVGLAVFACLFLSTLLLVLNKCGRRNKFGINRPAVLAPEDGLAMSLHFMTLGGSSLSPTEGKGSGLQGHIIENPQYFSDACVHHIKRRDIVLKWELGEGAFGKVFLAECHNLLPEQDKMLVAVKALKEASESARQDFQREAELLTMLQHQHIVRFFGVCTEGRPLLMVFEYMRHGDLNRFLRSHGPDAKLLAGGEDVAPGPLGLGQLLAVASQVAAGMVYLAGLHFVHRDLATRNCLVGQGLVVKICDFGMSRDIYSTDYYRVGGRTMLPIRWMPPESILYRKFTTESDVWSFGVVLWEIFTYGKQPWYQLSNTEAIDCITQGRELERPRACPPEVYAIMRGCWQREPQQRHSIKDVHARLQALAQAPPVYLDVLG
# T3 sequence (P04629 440-796 G595R limits assumed, form open): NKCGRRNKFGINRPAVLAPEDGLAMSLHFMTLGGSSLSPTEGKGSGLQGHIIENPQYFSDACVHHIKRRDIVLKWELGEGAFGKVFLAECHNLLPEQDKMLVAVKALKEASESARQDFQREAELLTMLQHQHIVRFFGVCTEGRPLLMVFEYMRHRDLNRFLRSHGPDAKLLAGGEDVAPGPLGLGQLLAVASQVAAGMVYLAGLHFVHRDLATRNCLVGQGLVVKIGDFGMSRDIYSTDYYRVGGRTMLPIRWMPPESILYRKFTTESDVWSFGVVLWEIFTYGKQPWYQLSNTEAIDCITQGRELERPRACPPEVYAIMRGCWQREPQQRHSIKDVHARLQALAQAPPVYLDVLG
# T1 sequence (P04629 33-796): as the sequence (P04629 33-796 G667C) above, with C635G counted along it
# T6 sequence (P04629 33-796 G595R): as the sequence (P04629 33-796 G667C) above, with G563R, C635G counted along it
# T4 sequence (Q16288 32-839): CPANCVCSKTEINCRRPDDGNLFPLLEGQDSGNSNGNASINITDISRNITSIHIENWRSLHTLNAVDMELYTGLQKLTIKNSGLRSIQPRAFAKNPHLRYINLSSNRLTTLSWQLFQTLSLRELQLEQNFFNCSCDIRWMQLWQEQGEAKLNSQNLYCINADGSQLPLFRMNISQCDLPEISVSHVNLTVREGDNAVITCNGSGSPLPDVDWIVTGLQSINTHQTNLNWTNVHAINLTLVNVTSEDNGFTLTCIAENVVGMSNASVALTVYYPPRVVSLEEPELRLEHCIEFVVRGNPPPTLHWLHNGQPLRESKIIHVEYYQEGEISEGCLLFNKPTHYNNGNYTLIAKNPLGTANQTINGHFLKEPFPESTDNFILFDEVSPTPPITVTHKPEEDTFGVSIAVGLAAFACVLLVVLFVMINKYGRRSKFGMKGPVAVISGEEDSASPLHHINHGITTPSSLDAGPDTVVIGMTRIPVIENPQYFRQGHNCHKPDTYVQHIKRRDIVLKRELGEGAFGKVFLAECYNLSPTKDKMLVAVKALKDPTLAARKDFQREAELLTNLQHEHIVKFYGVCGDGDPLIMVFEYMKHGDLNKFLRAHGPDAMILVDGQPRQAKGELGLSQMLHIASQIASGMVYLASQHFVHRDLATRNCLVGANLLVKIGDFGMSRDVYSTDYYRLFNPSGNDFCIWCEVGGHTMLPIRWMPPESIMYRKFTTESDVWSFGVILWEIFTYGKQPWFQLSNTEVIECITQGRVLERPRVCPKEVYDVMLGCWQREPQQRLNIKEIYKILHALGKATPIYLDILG
# T5 sequence (Q16620 32-822): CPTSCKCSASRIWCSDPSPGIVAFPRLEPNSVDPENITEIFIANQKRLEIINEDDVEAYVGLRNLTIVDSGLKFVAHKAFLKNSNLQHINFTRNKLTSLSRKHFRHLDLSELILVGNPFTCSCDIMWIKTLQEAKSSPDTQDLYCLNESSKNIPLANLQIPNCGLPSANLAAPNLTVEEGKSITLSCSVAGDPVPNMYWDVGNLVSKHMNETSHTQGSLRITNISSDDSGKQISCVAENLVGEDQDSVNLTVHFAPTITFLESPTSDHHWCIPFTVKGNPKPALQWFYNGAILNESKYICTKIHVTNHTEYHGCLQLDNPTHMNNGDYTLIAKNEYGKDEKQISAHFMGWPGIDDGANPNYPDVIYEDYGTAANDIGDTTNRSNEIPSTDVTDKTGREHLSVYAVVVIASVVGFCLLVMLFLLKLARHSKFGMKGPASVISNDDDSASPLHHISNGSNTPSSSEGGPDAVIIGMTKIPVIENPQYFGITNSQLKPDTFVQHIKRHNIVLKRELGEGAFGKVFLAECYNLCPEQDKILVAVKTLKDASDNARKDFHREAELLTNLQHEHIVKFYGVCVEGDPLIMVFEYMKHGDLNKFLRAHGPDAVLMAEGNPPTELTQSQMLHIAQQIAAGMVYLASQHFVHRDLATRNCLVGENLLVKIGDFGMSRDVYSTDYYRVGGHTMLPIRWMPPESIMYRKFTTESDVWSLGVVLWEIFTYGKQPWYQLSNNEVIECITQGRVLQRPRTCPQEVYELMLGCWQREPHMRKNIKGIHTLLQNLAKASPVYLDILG
SMILES,IC50 (Recombinant human TRKA) [nM],IC50 [1] [nM],IC50 (ΔTRKA(G595R)) [nM],IC50 (KM12-LUC cells) [nM],IC50 (Recombinant human TRKC) [nM],IC50 (Recombinant human TRKB) [nM],IC50 [2] [nM]
"Fc1ccc(F)c([C@H]2CCCN2c2ccc3nccc(-c4cnn(C5CCNCC5)c4)c3n2)c1 [Example 7, (R)-2-(2-(2,5-Difluorophenyl)pyrrolidin-1-yl)-8-(1-(piperidin-4-yl)-1H-pyrazol-4-yl)-1,5-naphthyridine]",< 50,< 1,< 10,< 10,< 50,< 100,< 1
[2H]c1nc(-c2cnn(C3CCNCC3)c2)c2nc(N3C[C@@H](F)C[C@@H]3c3cc(F)ccc3F)ccc2n1 [Example 58],< 1,< 1,< 10,< 10,< 1,< 10,< 1
"Fc1ccc(F)c([C@H]2C[C@H](F)CN2c2ccc3ncc(Cl)c(-c4ccc(C5CCNCC5)nc4)c3n2)c1 [Example 63, 7-chloro-2-((2R,4S)-2-(2,5-difluorophenyl)-4-fluoropyrrolidin-1-yl)-8-(6-(piperidin-4-yl)pyridin-3-yl)-1,5-naphthyridine]",< 1,–,< 10,< 10,< 10,< 10,< 10
"O[C@@H]1CCN(c2ccc(-c3c(Cl)cnc4ccc(N5C[C@@H](F)C[C@@H]5c5cc(F)ccc5F)nc34)cn2)C1 [Example 65, (R)-1-(5-(3-chloro-6-((2R,4S)-2-(2,5-difluorophenyl)-4-fluoropyrrolidin-1-yl)-1,5-naphthyridin-4-yl)pyridin-2-yl)pyrrolidin-3-ol]",< 1,< 10,< 10,< 10,< 10,< 10,< 10
"O=C1CNCCN1c1ccc(-c2c(F)cnc3ccc(N4C[C@@H](F)C[C@@H]4c4cc(F)ccc4F)nc23)cn1 [Example 97, 1-(5-(6-((2R,4S)-2-(2,5-difluorophenyl)-4-fluoropyrrolidin-1-yl)-3-fluoro-1,5-naphthyridin-4-yl)pyridin-2-yl)piperazin-2-one]",< 1,–,–,< 10,< 1,< 10,–
